Assay [1] concerns the target T1, Adrenergic β2 (H292 cells) (Homo sapiens, UniProt P07550).
T1 construct: endogenous in cells; host or cells: H292 cells
Briefly: Assay for Adrenergic β2 Mediated cAMP Production (concentration response, AlphaScreen cAMP detection). Format: cell-based. Conditions: for EC50: cAMP production, 60 minutes at room temperature, 300 μM rolipram, read-out: β2 pEC50 (converted); for β2 Intrinsic activity: fraction relative to the maximum activity determined for formoterol. As to the method: Assay for Adrenergic β2 Mediated Camp Production
H292 cells are grown in 225 cm2 flasks incubator at 37° C., 5% CO2 in RPMI medium containing 10% (v/v) FBS (foetal bovine serum) and 2 mM L-glutamine.
Adherent H292 cells are removed from tissue culture flasks by treatment with Accutase™ cell detachment solution for 15 minutes. Flasks are incubated for 15 minutes in a humidified incubator at 37° C., 5% CO2. Detached cells are re-suspended in RPMI media (containing 10% (v/v) FBS and 2 mM L-glutamine) at 0.1×10^6 cells per mL. 10000 cells in 100 μL are added to each well of a tissue-culture-treated 96-well plate and the cells incubated overnight in a humidified incubator at 37° C., 5% CO2. The culture media is removed and cells are washed twice with 100 μL assay buffer and replaced with 50 μL assay buffer (HBSS solution containing 10 mM HEPES pH7.4 and 5 mM glucose). Cells are rested at room temperature for 20 minutes after which time 25 μL of rolipram (1.2 mM made up in assay buffer containing 2.4% (v/v) dimethylsulphoxide) is added. Cells are incubated with rolipram for 10 minutes after which time test compounds are added and the cells are incubated for 60 minutes at room temperature. The final rolipram concentration in the assay is 300 μM and final vehicle concentration is 1% (v/v) dimethylsulphoxide. The reaction is stopped by removing supernatants, washing once with 100 μL assay buffer and replacing with 50 μL lysis buffer. The cell monolayer is frozen at −80° C. for 30 minutes (or overnight).
AlphaScreen™ cAMP Detection
The concentration of cAMP (cyclic adenosine monophosphate) in the cell lysate is determined using AlphaScreen™ methodology. The frozen cell plate is thawed for 20 minutes on a plate shaker then 10 μL of the cell lysate is transferred to a 96-well white plate. 40 μL of mixed AlphaScreen™ detection beads pre-incubated with biotinylated cAMP, is added to each well and the plate incubated at room temperature for 3 hours in the dark. The AlphaScreen™ signal is measured using an EnVision spectrophotometer (Perkin-Elmer Inc.) with the recommended manufacturer's settings. cAMP concentrations are determined by reference to a calibration curve determined in the same experiment using standard cAMP concentrations. Concentration response curves for agonists are constructed and data is fitted to a four parameter logistic equation to determine both the pEC50 and Intrinsic Activity. Intrinsic Activity is expressed as a fraction relative to the maximum activity determined for formoterol in each experiment.

Assay [2] addresses T2, human muscarinic acetylcholine M3 receptor (M3-ACh) (Homo sapiens, UniProt P20309).
T2 construct: expressed in transfected cells; host or cells: CHO-K1 (Chinese Hamster Ovary) cell membranes
Briefly: Muscarinic 3 Receptor Binding Assay ([3H]NMS competition, SPA). Particulars: [3H]NMS 0.1 nM, CHO-K1 cell membranes, 16 hours at room temperature; read-out: M3 pIC50 (converted). As to the method: Muscarinic 3 Receptor Binding Assay
The affinity (pIC50) of compounds binding to the M3 receptor is determined by competition binding of [^3H]N-methyl scopolamine (NMS) to CHO-K1 (Chinese Hamster Ovary) cell membranes expressing the human muscarinic acetylcholine M3 receptor (M3-ACh) in a scintillation proximity assay (SPA) format.
SPA beads are precoated with membranes and then incubated at 2 mg of beads per well with serial dilutions of compounds of the invention, [^3H]NMS at 0.1 nM, quarter Kd (experimentally determined dissociation constant) and assay buffer (20 mM HEPES pH 7.4 containing 5 mM MgCl2). The assay is conducted in a final volume of 200 μL, in the presence of 1% (v/v) dimethyl sulphoxide (DMSO). Total binding of [^3H]NMS is determined in the absence of competing compound and non-specific binding of [^3H]NMS is determined in the presence of 1 μM atropine. The plates are incubated for 16 hours at room temperature and then read on Wallac Microbeta™ using a normalised ^3H protocol. The pIC50, defined as the negative logarithm of the molar concentration of compound required for 50% reduction in specific [^3H]-NMS binding, is determined.

The text below walks through data of patent US8148373B2, “Compounds” (AstraZeneca AB, priority 2008, dated 2012).

Counter-ions that a name gives are not always drawn. Bounds are passed on as bounds.

T2 sequence (P20309 whole entry): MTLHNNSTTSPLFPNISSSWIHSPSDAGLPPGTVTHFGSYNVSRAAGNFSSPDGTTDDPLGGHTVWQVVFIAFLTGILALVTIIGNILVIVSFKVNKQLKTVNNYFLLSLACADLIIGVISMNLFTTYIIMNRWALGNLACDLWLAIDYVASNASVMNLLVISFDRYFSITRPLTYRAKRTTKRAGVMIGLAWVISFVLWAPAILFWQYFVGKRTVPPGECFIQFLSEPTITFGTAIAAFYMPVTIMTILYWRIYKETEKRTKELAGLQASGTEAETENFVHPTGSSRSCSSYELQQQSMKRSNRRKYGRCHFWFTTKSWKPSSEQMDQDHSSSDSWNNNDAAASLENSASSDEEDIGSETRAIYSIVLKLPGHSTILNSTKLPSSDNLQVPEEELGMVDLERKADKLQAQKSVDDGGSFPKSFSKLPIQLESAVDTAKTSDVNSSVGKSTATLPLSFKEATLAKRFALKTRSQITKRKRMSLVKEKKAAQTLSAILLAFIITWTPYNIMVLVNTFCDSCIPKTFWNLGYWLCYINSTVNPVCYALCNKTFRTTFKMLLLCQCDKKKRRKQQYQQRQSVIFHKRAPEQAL
T1 sequence (P07550 whole entry): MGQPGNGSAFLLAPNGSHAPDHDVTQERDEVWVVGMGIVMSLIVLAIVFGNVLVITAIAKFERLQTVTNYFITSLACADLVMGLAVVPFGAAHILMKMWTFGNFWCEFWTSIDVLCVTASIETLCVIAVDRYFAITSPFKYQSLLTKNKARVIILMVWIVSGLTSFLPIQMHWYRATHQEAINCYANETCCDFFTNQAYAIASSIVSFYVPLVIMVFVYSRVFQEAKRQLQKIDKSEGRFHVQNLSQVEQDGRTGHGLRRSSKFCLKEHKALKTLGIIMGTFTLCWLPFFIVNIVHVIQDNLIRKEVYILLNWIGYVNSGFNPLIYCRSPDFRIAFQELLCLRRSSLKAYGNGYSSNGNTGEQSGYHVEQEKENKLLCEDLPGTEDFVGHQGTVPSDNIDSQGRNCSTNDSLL

In the case of `Cc1nc(C(=O)N2CCOC3(CCN(CCOc4cccc(CNC[C@H](O)c5ccc(O)c6[nH]c(=O)ccc56)c4)CC3)C2)cs1` [Example 94, (R)-8-Hydroxy-5-(1-hydroxy-2-(3-(2-(4-(2-methylthiazole-4-carbonyl)-1-oxa-4,9-diazaspiro[5.5]undecan-9-yl)ethoxy)benzylamino)ethyl)quinolin-2(1H)-one ditrifluoroacetate], in assay [1], the EC50 was 1260 nM and the “β2 Intrinsic activity” value turned out to be 0.7. Also, in assay [2], the IC50 is 12.6 nM.

`CC(C)c1nc(C(=O)N2CCOC3(CCN(CCCCCCSCCNC[C@H](O)c4ccc(O)c5[nH]c(=O)sc45)CC3)C2)cs1` [Example 101, (R)-4-Hydroxy-7-(1-hydroxy-2-(2-(6-(4-(2-isopropylthiazole-4-carbonyl)-1-oxa-4,9-diazaspiro[5.5]undecan-9-yl)hexylthio)ethylamino)ethyl)benzo[d]thiazol-2(3H)-one formate]: in assay [1], the EC50 was 158 nM and the “β2 Intrinsic activity” value turned out to be 1. The IC50 in assay [2] is 0.316 nM.

On to `CC(C)c1ncc(C(=O)N2CCOC3(CCN(Cc4cc(F)cc(CCNC[C@H](O)c5ccc(O)c6[nH]c(=O)sc56)c4)CC3)C2)s1` [Example 55, (R)-7-(2-(3-Fluoro-5-((4-(2-isopropylthiazole-5-carbonyl)-1-oxa-4,9-diazaspiro[5.5]undecan-9-yl)methyl)phenethylamino)-1-hydroxyethyl)-4-hydroxybenzo[d]thiazol-2(3H)-one ditrifluoroacetate], for which, in assay [1], the EC50 was 6.31 nM and the “β2 Intrinsic activity” value was 1. In addition, the IC50 in assay [2] is 63.1 nM.

`CCC(CC)c1nc(C(=O)N2CCOC3(CCN(Cc4cccc(CCNC[C@H](O)c5ccc(O)c6[nH]c(=O)sc56)c4)CC3)C2)cs1` [Example 265, (R)-4-Hydroxy-7-(1-hydroxy-2-(3-((4-(2-(pentan-3-yl)thiazole-4-carbonyl)-1-oxa-4,9-diazaspiro[5.5]undecan-9-yl)methyl)phenethylamino)ethyl)benzo[d]thiazol-2(3H)-one ditrifluoroacetate]: in assay [1], the EC50 was 12.6 nM and the “β2 Intrinsic activity” value was 1. The IC50 in assay [2] is 0.794 nM.

Consider `Cc1nc(C(=O)N2CCOC3(CCN(CCOc4cc(C)c(CNC[C@H](O)c5ccc(O)c6[nH]c(=O)ccc56)cc4C)CC3)C2)cs1` [Example 97, (R)-5-(2-(2,5-Dimethyl-4-(2-(4-(2-methylthiazole-4-carbonyl)-1-oxa-4,9-diazaspiro[5.5]undecan-9-yl)ethoxy)benzylamino)-1-hydroxyethyl)-8-hydroxyquinolin-2(1H)-one ditrifluoroacetate], for which, in assay [1], the EC50 was over 3160 nM and the “β2 Intrinsic activity” value was 1.5. Moreover, the IC50 in assay [2] is 6.31 nM.

Regarding `CC(C)c1nc(C(=O)N2CCOC3(CCN(Cc4cc(CCNC[C@H](O)c5ccc(O)c6[nH]c(=O)sc56)ccc4F)CC3)C2)cs1` [Example 40, (R)-7-(2-(4-Fluoro-3-((4-(2-isopropylthiazole-4-carbonyl)-1-oxa-4,9-diazaspiro[5.5]undecan-9-yl)methyl)phenethylamino)-1-hydroxyethyl)-4-hydroxybenzo[d]thiazol-2(3H)-one ditrifluoroacetate], in assay [1], the EC50 is 12.6 nM and the “β2 Intrinsic activity” value turned out to be 1.1. Also, the IC50 in assay [2] was 0.398 nM.

For the compound `CCC(CC)c1nc(C(=O)N2CCOC3(CCN(Cc4cccc(CCNC[C@H](O)c5ccc(O)c6[nH]c(=O)ccc56)c4)CC3)C2)cs1` [Example 274, (R)-8-Hydroxy-5-(1-hydroxy-2-(3-((4-(2-(pentan-3-yl)thiazole-4-carbonyl)-1-oxa-4,9-diazaspiro[5.5]undecan-9-yl)methyl)phenethylamino)ethyl)quinolin-2(1H)-one ditrifluoroacetate], in assay [1], the EC50 is 25.1 nM and the “β2 Intrinsic activity” value was 1.0. Besides, the IC50 in assay [2] was 2.51 nM.

Regarding `Cc1nc(C(=O)N2CCOC3(CCN(CCOc4cccc(CNC[C@H](O)c5ccc(O)c6[nH]c(=O)sc56)c4)CC3)C2)cs1` [Example 10, (R)-4-Hydroxy-7-(1-hydroxy-2-(3-(2-(4-(2-methylthiazole-4-carbonyl)-1-oxa-4,9-diazaspiro[5.5]undecan-9-yl)ethoxy)benzylamino)ethyl)benzo[d]thiazol-2(3H)-one ditrifluoroacetate], in assay [1], the EC50 is 316 nM and the “β2 Intrinsic activity” value is given as 0.9. For the same compound, the IC50 in assay [2] is 5.01 nM.

Take `Cc1nc(C(=O)N2CCOC3(CCN(Cc4cccc(CNC[C@H](O)c5ccc(O)c6[nH]c(=O)ccc56)c4)CC3)C2)cs1` [Example 96, (R)-8-Hydroxy-5-(1-hydroxy-2-(3-((4-(2-methylthiazole-4-carbonyl)-1-oxa-4,9-diazaspiro[5.5]undecan-9-yl)methyl)benzylamino)ethyl)quinolin-2(1H)-one ditrifluoroacetate]: in assay [1], the EC50 was over 3200 nM and the “β2 Intrinsic activity” value was “NV* (inactive up to a max concentration of 3.2 μM of test compound)”. For the same compound, in assay [2], the IC50 was 0.251 nM.

For `Cc1ccc(C(=O)N2CCOC3(CCN(Cc4cc(CCNC[C@H](O)c5ccc(O)c6[nH]c(=O)sc56)cs4)CC3)C2)s1` [Example 27, (R)-4-Hydroxy-7-(1-hydroxy-2-(2-(5-((4-(5-methylthiophene-2-carbonyl)-1-oxa-4,9-diazaspiro[5.5]undecan-9-yl)methyl)thiophen-3-yl)ethylamino)ethyl)benzo[d]thiazol-2(3H)-one ditrifluoroacetate], in assay [1], the EC50 was 1.26 nM and the “β2 Intrinsic activity” value came to 1. For the same compound, in assay [2], the IC50 was 2.51 nM.

Regarding `CC(C)c1nc(C(=O)N2CCOC3(CCN(CCCCCCC(C)(C)CCNC[C@H](O)c4ccc(O)c5[nH]c(=O)sc45)CC3)C2)cs1` [Example 279, (R)-4-Hydroxy-7-(1-hydroxy-2-(9-(4-(2-isopropylthiazole-4-carbonyl)-1-oxa-4,9-diazaspiro[5.5]undecan-9-yl)-3,3-dimethylnonylamino)ethyl)benzo[d]thiazol-2(3H)-one formate], in assay [1], the EC50 was 316 nM and the “β2 Intrinsic activity” value is recorded as 0.9. Moreover, the IC50 in assay [2] is 7.94 nM.

As to `CC(C)c1nc(C(=O)N2CCOC3(CCN(CCOc4ccc(CNC[C@H](O)c5ccc(O)c6[nH]c(=O)sc56)cc4)CC3)C2)cs1` [Example 108, (R)-4-Hydroxy-7-(1-hydroxy-2-(4-(2-(4-(2-isopropylthiazole-4-carbonyl)-1-oxa-4,9-diazaspiro[5.5]undecan-9-yl)ethoxy)benzylamino)ethyl)benzo[d]thiazol-2(3H)-one formate], in assay [1], the EC50 is 126 nM and the “β2 Intrinsic activity” value amounted to 0.9. In assay [2], the IC50 is 3.98 nM.

In the case of `CCCc1nc(C(=O)N2CCOC3(CCN(Cc4cccc(CCNC[C@H](O)c5ccc(O)c6[nH]c(=O)sc56)c4)CC3)C2)cs1` [Example 87, (R)-4-Hydroxy-7-(1-hydroxy-2-(3-((4-(2-propylthiazole-4-carbonyl)-1-oxa-4,9-diazaspiro[5.5]undecan-9-yl)methyl)phenethylamino)ethyl)benzo[d]thiazol-2(3H)-one ditrifluoroacetate], in assay [1], the EC50 is 3.16 nM and the “β2 Intrinsic activity” value stood at 0.9. Moreover, the IC50 in assay [2] is 0.501 nM.
